Data published in article PMC9705314, “Characterization of a new potent and long-lasting single chain peptide agonist of RXFP1 in cells and in vivo translational models” (Scientific Reports, 2022).
Where two headings read alike, the source gives them in different places. *1 amine or outer side, *2 acyl side, *3 side chain or, on linkers, in order; H or OH if unused. Where a SMILES comes first, the peptide text is derived from it. Side-chain parts run from the residue outwards. [ ]: non-standard residue; d: D form. The star is where a group is joined. γGlu = O=C(O)[C@H](CCC(=O)[*:2])N[*:1]; Stearoyl = CCCCCCCCCCCCCCCCCC(=O)*; Nle = CCCC[C@H](N)C(=O)O; AEEA = NCCOCCOCC(=O)O; Aib = CC(C)(N)C(=O)O

How the values were obtained:
[1] = Pharmacokinetics in Goettingen minipigs; type: in vivo, minipig; settings: for CL / t1/2 / AUCext / F / AUC / C0 / Vd / Cmax / Tmax: female Göttingen minipig; for CL / t1/2 / AUC / C0 / Vd / Cmax / Tmax: LC-MS; for CL / t1/2 / AUC / C0 / Vd / Cmax: non-compartmental analysis; for AUC / C0 / Vd / Cmax / Tmax: 1 mg/kg; for Vd: read-out: Vss
Experimental: Goettingen minipigs (Ellegaard Göttingen Minipigs A/S, Soroe Landevej 302, DK-4261 Dalmose, Denmark) were dosed with the study peptide at a dose of 1 mg/kg IV and SC routes (0.1 mg/mL). Blood samples were collected from individual animals at the following time points: 0.083, 0.25, 0.5, 2, 4, 6, 8, 24, 48, 72, 96 and 168 h (IV route) and 0.25, 0.5, 2, 4, 6, 8, 24, 48, 72, 96 and 168 h (SC route). All samples, collected into K3-EDTA tubes, were centrifuged and plasma was harvested and stored at − 80 °C until analysis. Three hundred μL of 1% tri-fluoro acetic acid in acetonitrile containing 10 ng/mL irbesartan as internal standard were added to 30 μL of standard, QC and PK study samples to precipitate the plasma proteins. Each sample was vortexed and centrifuged, for 5 min, at 4000 rpm and at 4 °C. Two hundred and fifty microliters of supernatant were collected and evaporated under nitrogen at 37 °C in LoBIND 96 well plates. 150 µL of water/acetonitrile (90/10, v/v) were added to dissolve the evaporates and 10 µL of the extracted plasma samples were injected onto the column. Chromatographic separation was performed on a Thermo Vanquish (Thermo Scientific) chromatography system using a UPLC HSS T3, (50 mm × 2.1 mm I.D., 1.8 μm, Waters Corporation) with a flow rate of 0.600 mL/min at 40 °C and a two-solvent linear gradient system. Solvents A (water) and B (acetonitrile) contained both 0.1% formic acid. […] The Vanquish was coupled to an Orbitrap QExactive™ mass spectrometer (Thermo Scientific) in positive mode. Quantitation was performed in full scan. The optimized source parameters were as follows: ion spray voltage 3.8 kV, sheath gas flow 70 a.u., aux gas flow 10 a.u., aux T 300 °C, capillary T 250 °C, S-lens RF level 60%. Full MS parameters were as follows: mass range 150–2000, AGC target 1 × 10^6, max injection time 250 ms, resolution 70,000 (FWHM @ 200 m/z). Data processing was performed using Xcalibur 3.0 (Thermo Scientific). Ion current of the [M + 5H]5 + of the SA10SC-RLX was extracted with 5 ppm window for quantitation (814.47219 m/z). A calibration curve with 9 standard points was prepared freshly on the day of analysis by spiking appropriate amounts of an intermediate working standard solution into blank rat plasma and ranged from 10 to 4000 ng/mL (2.46–983 nM). Three QC samples, each at four concentration levels from […] to 3200 ng/mL (7.86–786 nM), were used for all analyses. Calibration curves were prepared by plotting the analyte to internal standard peak area ratio versus concentration. Calibration standards were fit by linear regression with 1/x^2 weighting. QC samples (n = 3) were used at six concentration levels. Accepted calibration curve contained minimum 7 concentration levels within ± 20% of nominal (± 25% at the Lower Limit of Quantitation). Accepted QCs were within ± 20% of nominal. PK parameters were calculated using a non-compartmental analysis with Phoenix WinNonLin version 6.4 software.

RXFP1 = target: T1, RXFP1 (Homo sapiens, UniProt Q9HBX9); assay: cAMP production in HEK_RXFP1 cells; type: cell-based; set-up: expressed in transfected cells; settings: HEK_RXFP1 cells (wild type construct), n = 4 experiments in duplicate
T1 sequence (Q9HBX9 1-757): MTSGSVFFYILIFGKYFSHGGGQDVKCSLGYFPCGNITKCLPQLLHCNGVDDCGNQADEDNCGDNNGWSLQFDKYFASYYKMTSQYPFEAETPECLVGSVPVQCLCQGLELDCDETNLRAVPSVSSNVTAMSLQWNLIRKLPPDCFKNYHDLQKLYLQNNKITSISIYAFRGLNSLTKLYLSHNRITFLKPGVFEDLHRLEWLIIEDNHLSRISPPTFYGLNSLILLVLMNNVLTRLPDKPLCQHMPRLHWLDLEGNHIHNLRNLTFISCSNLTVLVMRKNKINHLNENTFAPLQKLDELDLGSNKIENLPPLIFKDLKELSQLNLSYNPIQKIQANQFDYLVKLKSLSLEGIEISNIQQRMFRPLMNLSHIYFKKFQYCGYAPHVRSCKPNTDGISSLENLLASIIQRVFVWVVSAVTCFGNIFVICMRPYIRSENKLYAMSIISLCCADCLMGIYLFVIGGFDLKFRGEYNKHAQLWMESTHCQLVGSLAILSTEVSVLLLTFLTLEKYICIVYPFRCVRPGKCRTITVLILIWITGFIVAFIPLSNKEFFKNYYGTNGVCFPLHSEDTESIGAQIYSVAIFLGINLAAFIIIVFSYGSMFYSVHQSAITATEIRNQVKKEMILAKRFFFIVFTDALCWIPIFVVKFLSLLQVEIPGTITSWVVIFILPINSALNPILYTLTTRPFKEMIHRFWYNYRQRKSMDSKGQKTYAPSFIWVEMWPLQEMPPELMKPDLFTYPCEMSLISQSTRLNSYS

[2] = female, Göttingen, minipig, plasma, iv, IV 1 mg/kg, animal 1
[3] = female, Göttingen, minipig, plasma, iv, IV 1 mg/kg, animal 2
[4] = female, Göttingen, minipig, plasma, sc, SC 1 mg/kg, animal 3
[5] = female, Göttingen, minipig, plasma, sc, SC 1 mg/kg, animal 4

## CCCCCCCCCCCCCCCCCC(=O)N[C@@H](CCC(=O)N[C@@H](CCC(=O)N[C@@H](CCC(=O)NCCOCCOCC(=O)NCCOCCOCC(=O)NCCOCCOCC(=O)NCCCC[C@H](NC(=O)[C@H](CCCCNC(C)=O)NC(=O)[C@H](CCCCN)NC(=O)[C@H](CCCNC(=N)N)NC(=O)C(C)(C)NC(=O)[C@H](CO)NC(=O)[C@H](Cc1c[nH]c2ccccc12)NC(=O)[C@@H](NC(=O)[C@H](CO)NC(=O)[C@H](CCCC)NC(=O)CNC(=O)[C@H](CCC(=O)O)NC(=O)C(C)(C)NC(=O)C(C)(C)NC(=O)[C@@H](NC(=O)[C@H](CCCCNC(C)=O)NC(=O)[C@H](C)NC(=O)[C@H](CCCNC(=N)N)NC(=O)[C@@H](NC(=O)[C@H](CCCCN)NC(=O)[C@H](CCC(=O)O)NC(=O)[C@H](CCCNC(=N)N)NC(=O)CNC(=O)[C@H](CCC(=O)O)NC(=O)[C@H](CC(C)C)NC(C)=O)C(C)C)[C@@H](C)CC)[C@@H](C)O)C(N)=O)C(=O)O)C(=O)O)C(=O)O [SA10SC-RLX] (Ac-LEGREKVRAK(Ac)I[Aib][Aib]EG[Nle]STWS[Aib]RKK(Ac)K([AEEA-AEEA-AEEA-γGlu-γGlu-γGlu-Stearoyl])-NH2)
[1]; IV 1 mg/kg, plasma, animal 1
  CL: 0.130 mL/min/kg
  t1/2: 7.06 h
  AUCext: 0.462%
[1]; IV 1 mg/kg, plasma, animal 2
  CL: 0.151 mL/min/kg
  t1/2: 6.92 h
  AUCext: 0.479%
[1]; SC 1 mg/kg vs IV 1 mg/kg, animal 3
  F: 81%
[1]; SC 1 mg/kg vs IV 1 mg/kg, animal 4
  F: 56%
[1]; SC 1 mg/kg, plasma, animal 3
  AUCext: 3.16%
[1]; SC 1 mg/kg, plasma, animal 4
  AUCext: 1.83%
[1]; [2]
  AUC: 31.9 µM·h
  C0: 9.36 µM
[1]; [3]
  AUC: 27.1 µM·h
  C0: 8.57 µM
[1]; female, Göttingen, minipig, plasma, iv, IV 1 mg/kg, plasma, animal 1
  Vd: 0.0439 L/kg
[1]; female, Göttingen, minipig, plasma, iv, IV 1 mg/kg, plasma, animal 2
  Vd: 0.0497 L/kg
[1]; [4]
  AUC: 23.8 µM·h
  Cmax: 1420 nM
  Tmax: 6 h
[1]; [5]
  AUC: 16.6 µM·h
  Cmax: 1450 nM
  Tmax: 4 h
[1]; female, Göttingen, minipig, plasma, minipigs, IV 1 mg/kg, n = 2
  clearance: 0.14 mL/min/kg
[1]; female, Göttingen, minipig, plasma, minipigs, SC 1 mg/kg vs IV 1 mg/kg, read-out: bioavailability (ratio of scAUC/ivAUC)
  bioavailability: ~70%
[1]; female, Göttingen, minipig, plasma, minipigs, SC 1 mg/kg, read-out: plasma concentration after 12 h
  level at time molar at 12 h: ~1000 nM
[1]; minipigs, IV 1 mg/kg, n = 2
  apparent terminal half-life: 7 h

## relaxin
RXFP1
  cAMP activity: activity was in the same range
